One data set has as its system pupil diameter. Description: Test Example 1 (2): pupil diameter, pigmented rabbits. The class given is in vivo, pigmented rabbits (Dutch belted rabbits). Conditions: treated eyes, 0.5 to 6 hours after topical application. On the procedure:
Male pigmented rabbits (Dutch belted rabbits) weighing about 2 kg, after having been confirmed to be free from ocular abnormalities; were bred in a breeding room maintained at a temperature of 24± 4° C. and at a relative humidity of 55± 15%, while they were given solid food (Labo RG-RO manufactured by Nihon Nohsan Kogyo K.K.) at a daily rate of 100 g per rabbit and allowed free access to tap water as drinking water. As a test drug, amosulalol hydrochloride was processed into 0.05% (hereinafter, the term "%" is to be understood to designate "w/v %") and 1.0% aqueous solutions which were used in the test, and 0.5% timolol maleate ophthalmic solution [Timoptol (registered trademark): Ban-yu Pharmaceutical Co.] and physiological saline were used as a positive control drug and a control substance, respectively. (2) Measurement of pupil diameter: With each of the rabbits as used under the above item (1), pupil diameter was measured for both eyes using a micrometer caliper, before instillation and 0.5, 1, 2, 3, 4, and 6 hours after topical application of the individual test drugs and physiological saline, respectively.

Another data set relates to conjunctiva. The experiment in a line: Test Example 2: conjunctival hyperemia, pigmented rabbits. The class given is in vivo, pigmented rabbits (Dutch belted rabbits). Conditions: concentrations of less than 0.5%.
A further data set relates to cornea. Description: Test Example 7 (2)(d): observation on fluorescein-dyed spots of the cornea. Format: in vivo, Japanese white rabbits. The settings on record: 1% and 0.5% ophthalmic solutions, 28 days. On the procedure:
(2) Ocular local toxicity test in rabbits of 1.0% and 0.5% ophthalmic solutions of amosulalol hydrochloride by consecutive instillation for 28 days: With 15 male Japanese white rabbits divided into 3 groups each consisting of 5 rabbits, 1.0% and 0.5% ophthalmic solutions of amosulalol hydrochloride as well as physiological saline as a control were applied in one drop (0.05 ml) per time to the right eye of each rabbit alone, four times a day at a regular interval of 2.5 hours, for 28 days consecutively with the left eye being left untreated. (d) Observation on fluorescein-dyed spots of the cornea: Before instillation of 1.0% and 0.5% ophthalmic solutions of amosulalol hydrochloride as well as on the day (Day 1) of initiating the instillation and on the 2nd, 4th, 7th, 14th, 21st, 28th days after initiating the instillation but each time after completion of such instillation, and on the morning of the last instillation (29th day), 10 μl of 0.1% aqueous fluorescein solution was applied topically to the eyes of each test animal, and observation was performed on the abrasion of the corneal epithelial cells with a photo-slit lamp.

The nature of data set [1]: Test Example 7 (2)(a),(b): general conditions and body weight, 28 days instillation. The class given is in vivo, Japanese white rabbits. The settings on record: 1% and 0.5% ophthalmic solutions, 4 times a day. On the procedure:
(2) Ocular local toxicity test in rabbits of 1.0% and 0.5% ophthalmic solutions of amosulalol hydrochloride by consecutive instillation for 28 days: With 15 male Japanese white rabbits divided into 3 groups each consisting of 5 rabbits, 1.0% and 0.5% ophthalmic solutions of amosulalol hydrochloride as well as physiological saline as a control were applied in one drop (0.05 ml) per time to the right eye of each rabbit alone, four times a day at a regular interval of 2.5 hours, for 28 days consecutively with the left eye being left untreated. (a) General conditions; Observation was made on the […] for general conditions once a week. (b) Body weight measurement; Body weight was measured once a week.

The nature of data set [2]: Test Example 6: freeze-thaw test, precipitation of crystals. The class given is physicochemical. The settings on record: 0.5% aqueous solution (pH 5.5), left standing at room temperature. On the procedure:
Investigation on the Processing of Amosulalol Hydrochloride into Ophthalmic Solution: Freeze-Thaw Test (Investigation on a Stabilizing Agent for the Ophthalmic Solution of Amosulalol Hydrochloride)
Consequently, investigation was conducted on a stabilizing agent intended for use in the case of such freezing.
0.5% aqueous solution of amosulalol hydrochloride (pH 5.5), after being admixed with each of the stabilizing agents (Nos. 1 to 5) as described in Table 1 shown below, was filled into a glass ampoule of 5 ml capacity, frozen at -30° C. and left standing at room temperature to conduct inspection for the presence of crystals in it.

Data set [3] deals with corneal epithelial and endothelial cells. The experiment in a line: Test Example 7 (2)(e): scanning electron microscope evaluation of corneal epithelial and endothelial cells. Format: in vivo, Japanese white rabbits. Conditions: 1% and 0.5% ophthalmic solutions, 28 days. The procedure: (2) Ocular local toxicity test in rabbits of 1.0% and 0.5% ophthalmic solutions of amosulalol hydrochloride by consecutive instillation for 28 days: With 15 male Japanese white rabbits divided into 3 groups each consisting of 5 rabbits, 1.0% and 0.5% ophthalmic solutions of amosulalol hydrochloride as well as physiological saline as a control were applied in one drop (0.05 ml) per time to the right eye of each rabbit alone, four times a day at a regular interval of 2.5 hours, for 28 days consecutively with the left eye being left untreated. (e) Evaluation with a scanning electron microscope of corneal epithelial and endothelial cells; After completion of the instillation of 1.0% and 0.5% ophthalmic solutions of amosulalol hydrochloride, morphological observation was done on corneal epithelial and endothelial cells in 3 eyes each of the two groups.

The subject of data set [4] is Hypertensive Intraocular Pressure Induced by Laser Irradiation. The experiment in a line: Test Example 5: hypertensive intraocular pressure induced by laser irradiation, pigmented rabbits. Format: in vivo. The settings on record: 0.5% aqueous solution. The procedure:
Intraocular Pressure Reducing Activity of 0.5% Aqueous Solution of Amosulalol Hydrochloride on Hypertensive Intraocular Pressure Induced by Laser Irradiation in Pigmented Rabbits
With 5 male pigmented rabbits weighing about 2 kg used as test animals, 50 μl of 0.5% aqueous solution of amosulalol hydrochloride was applied in a 50 μl portion to one eye of each rabbit, with 50 μl of physiological saline being given to the other. 30 min later, a laser beam was irradiated onto 6 different spots (spot size: 200 μm, power of 0.5 W, for 0.1 sec) of the irises in both eyes in such a manner that the spots were located at an equal distance. Intraocular pressure was measured for both eyes using PTG before instillation as well as before laser irradiation and 15, 30 and 45 min after laser irradiation.
FIG. 7 is a graph showing the intraocular pressure reducing activity of 0.5% aqueous solution of amosulalol hydrochloride on hypertensive intraocular pressure induced by laser irradiation in pigmented rabbits, with time (min) after laser irradiation taken as abscissa and intraocular pressure (mmHg) as ordinate; each value in mean ± S.E. (the number in each case is 8). The signs "a" and "c" designate physiological saline and 0.5% aqueous solution of amosulalol hydrochloride, respectively.

The values that follow come from patent publication US5663205A, “Pharmaceutical composition for use in glaucoma treatment” (Senju Pharmaceutical Co. Ltd., priority 1992, dated 1997).

Consider `COc1ccccc1OCCNCC(O)c1ccc(C)c(S(N)(=O)=O)c1.Cl` (stereo not shown) [amosulalol hydrochloride, 5-[1-hydroxy-2-[2-(2-methoxyphenoxy)ethylamino]ethyl]-2-methylbenzenesulfonamide hydrochloride], for which, in the data set on pupil diameter, the “change in pupil diameter” value was “no significant change in the pupil diameter”. Besides, the conjunctival hyperemia entry in the data set on conjunctiva is reported as “merely a slight degree of conjunctival hyperemia”. Further, the “observation of fluorescein-dyed spots in the cornea” value in the data set on cornea is on record as “no abnormalities”. In data set [1], the body weight measurement result is on record as “no abnormalities” and the general conditions result is on record as “no abnormalities”. Besides, the “dissolution of crystals after freezing” value in data set [2] is “did not allow the crystals to dissolve”. The “scanning electron microscope evaluation of corneal epithelial and endothelial cells” value in data set [3] was “no abnormalities”. Also, the “decrease in intraocular pressure before laser irradiation” value in data set [4] (30 min after instillation, immediately before laser irradiation) is 4.5 mmHg. Besides, in data set [4] (laser irradiation), the “suppressory activity against increase of the intraocular pressure” value is recorded as “exhibits suppressory activity against increase of the intraocular pressure”. Further, in data set [4] (physiological saline increased by 7.9 mmHg about 15 min after irradiation), the “intraocular pressure after laser irradiation” value was “increased to almost the same level as before instillation”.
